Test results: ChEMBL document CHEMBL3244083, “Fluorinated Pyrimidine nucleosides. 1. Synthesis of a nitrogen analogue of the antitumor agent 2,2'-anhydro-1-beta-D-arabinofuranosyl-5-fluorocytosine hydrochloride” (J Med Chem, 1977)
Values belong to the compound of their own block, whether it stands above or below them. Activity calls are given as the source filed them. The rule behind the calls is not given here.

How the values were obtained:
CCRF S-180 [1] = experiment: Antitumor activity against mouse S180 cells allografted in mouse assessed as tumor growth inhibition at 1 to 5 mg/kg, ip qd for 8 days; type: functional, organism-based
[2] = Stability of the compound at pH 7.4; type: physicochemical; details: buffer
CCRF S-180 [3] = experiment: Antitumor activity against mouse S180 cells allografted in mouse assessed as tumor growth inhibition at 100 mg/kg, ip qd for 8 days; type: functional, organism-based; set-up: dose 100 mg/kg
CCRF S-180 [4] = experiment: Antitumor activity against mouse S180 cells allografted in mouse assessed as tumor growth inhibition at 50 mg/kg, ip qd for 8 days; type: functional, organism-based; set-up: dose 50 mg/kg
CCRF S-180 [5] = experiment: Antitumor activity against mouse S180 cells allografted in mouse assessed as tumor growth inhibition at 5 mg/kg, ip qd for 8 days; type: functional, organism-based; set-up: dose 5 mg/kg

SMILES: Nc1nc(=O)n([C@@H]2O[C@H](CO)[C@@H](O)[C@H]2O)cc1F
TGI (CCRF S-180 [1]): Active

Stability [2]: Stable
SMILES: Nc1nc2[n+](cc1F)[C@@H]1O[C@H](CO)[C@@H](O)[C@@H]1N2.[Cl-]
TGI (CCRF S-180 [3]): inactive

SMILES: Nc1nc(N)[n+]([C@@H]2O[C@H](CO)[C@@H](O)[C@H]2O)cc1F
TGI (CCRF S-180 [4]): inactive

SMILES: O=c1[nH]c(=O)n([C@@H]2O[C@H](CO)[C@@H](O)[C@H]2O)cc1F
TGI (CCRF S-180 [5]): Active

SMILES: Nc1nc(=O)c(F)cn1[C@@H]1O[C@H](CO)[C@@H](O)[C@H]1O
TGI (CCRF S-180 [4]): inactive

SMILES: O=c1[nH]c(=O)n([C@@H]2O[C@H](CI)[C@@H](O)[C@H]2O)cc1F
TGI (CCRF S-180 [4]): inactive

Stability [2]: Stable
SMILES: O=c1nc2n(cc1F)[C@@H]1O[C@H](CO)[C@@H](O)[C@@H]1N2
TGI (CCRF S-180 [4]): inactive
